13 molecules from BindingDB's records for doi:10.1111/cbdd.12752 (Jagiellonian University Medical College, 2016) can be followed below.

For this assay, the target named is Histamine H4 receptor (Homo sapiens, UniProt Q9H3N8). The experiment in a line: In vitro [3H]histamine Binding Assay. The note with it: pH 7.4; 4 °C. As to the method:
Prior to the experiments, cell membranes were sedimented by a 10 min centrifugation at 4 °C and 16 0009x g and resuspended in binding buffer (12.5 mM MgCl2, 1 mM EDTA and 75 mM Tris/HCl, pH 7.4). Competition binding experimentswere carried out by incubating membranes, 35 ug/well (prepared from Sf9 cells transiently expressing human H4R, co-expressed with G proteins Galphai2 and Gbeta1gamma2 subunits) in a final volume of 0.2 mL containing binding buffer and [3H]histamine 2x HCl (10 nM, 15.3 Ci/mmol, PerkinElmer, Waltham, MA, USA) in a 96 well microtitre plate. Assays were run in duplicates or triplicates with four or seven appropriate concentrations between 100 nM or 0.1 nM and 100 uM of the test compounds. Amount of experiments was at least 2. Only exceptions were for substance 2, 3, and 4 where only one experiment in duplicates was performed.Incubations were performed for 60 min at 25 °C and shaking at 250 rpm. Non-specific binding was determined.

Sequence of Histamine H4 receptor (Q9H3N8 whole entry): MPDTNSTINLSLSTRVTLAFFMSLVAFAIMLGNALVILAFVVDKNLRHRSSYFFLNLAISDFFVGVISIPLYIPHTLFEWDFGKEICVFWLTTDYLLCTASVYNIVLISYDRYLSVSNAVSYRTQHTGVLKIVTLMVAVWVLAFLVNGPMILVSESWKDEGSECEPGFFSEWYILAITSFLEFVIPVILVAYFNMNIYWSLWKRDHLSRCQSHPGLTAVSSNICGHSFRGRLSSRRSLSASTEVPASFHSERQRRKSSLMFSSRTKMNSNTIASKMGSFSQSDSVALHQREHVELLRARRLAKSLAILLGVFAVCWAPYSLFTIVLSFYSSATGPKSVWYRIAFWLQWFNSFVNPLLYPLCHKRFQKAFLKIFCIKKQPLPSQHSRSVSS

As usually defined, the Ki is the dissociation constant of the complex between target and ligand, obtained from inhibition or displacement. A low value points to a stronger hold on the target. The molecule `CN1CCN(CCCNC(=O)Nc2cccc(Cl)c2)CC1` [1-(3-Chlorophenyl)-3-(3-(4-methylpiperazin-1-yl)propyl)urea (7)] displayed a Ki above 100 µM. The result for `CN1CCN(CCCNC(=O)c2sc3cc(Cl)ccc3c2Cl)CC1` [3,6-Dichloro-N-(3-(4-methylpiperazin-1-yl)propyl)benzo[b]thiophene-2-carboxamide (6)] reads above 100 µM; that for `CN1CCN(c2nc(N)nc(CN3C(=O)NC(C)(C)C3=O)n2)CC1` [3-((4-Amino-6-(4-methylpiperazin-1-yl)-1,3,5-triazin-2-yl)methyl)-5,5-dimethylimidazolidine-2,4-dione (9)], 14.6 µM; that for `CC(C)Cc1nc(N)nc(N2CCN(C)CC2)n1` [4-(4-Methylpiperazin-1-yl)-6-(2-methylpropyl)-1,3,5-triazin-2-amine (10)], 8.26 µM. The result for `CN1CCN(c2nc(N)nc(Cc3cccc4ccccc34)n2)CC1` [4-(4-Methylpiperazin-1-yl)-6-(naphthalen-1-ylmethyl)-1,3,5-triazin-2-amine (12)] reads 5.6 µM; that for `CN1CCN(c2nc(N)nc(-c3ccncc3)n2)CC1` [4-(4-Methylpiperazin-1-yl)-6-(pyridin-4-yl)-1,3,5-triazin-2-amine (15)], 3.19 µM; that for `CN1CCN(c2nc(N)nc(COc3ccc(Cl)cc3)n2)CC1` [4-((4-Chlorophenoxy)methyl)-6-(4-methylpiperazin-1-yl)-1,3,5-triazin-2-amine (14)], 10.6 µM.

Regarding `CN1CCN(c2nc(N)nc(Cc3ccccc3)n2)CC1` [4-Benzyl-6-(4-methylpiperazin-1-yl)-1,3,5-triazin-2-amine (13)], the inhibitory constant (Ki) amounted to 7.5 µM. The Ki values of the last two molecules are within 1.5-fold of each other. Next, `CN1CCN(CCCNC(=O)c2cc3cc(Cl)ccc3[nH]2)CC1` [5-Chloro-N-(3-(4-methylpiperazin-1-yl)propyl)-1H-indole-2-carboxamide (5)]: above 100 µM.

Molecule `CN1CCN(C(=O)c2ccccc2Cl)CC1` [(2-Chlorophenyl)(4-methylpiperazin-1-yl)methanone (1)] showed an inhibitory constant (Ki) above 100 µM. The result for `CN1CCN(C(=O)c2cccc(Cl)c2)CC1` [(3-Chlorophenyl)(4-methylpiperazin-1-yl)methanone (2)] reads 3.88 µM; that for `CN1CCN(C(=O)c2ccc(Cl)cc2)CC1` [(4-Chlorophenyl)(4-methylpiperazin-1-yl)methanone (3)], 7.55 µM; that for `CN1CCN(C(=O)Nc2ccc(Cl)cc2)CC1` [N-(4-Chlorophenyl)-4-methylpiperazine-1-carboxamide (4)], 3.52 µM.
